In ChEMBL document CHEMBL1150743, “Anti-inflammatory activity of benzoxazinoids from roots of Coix lachryma-jobi var. ma-yuen” (1988):

Each compound was assayed on Mast cell (assay: Antiinflammatory activity in Wistar rat peritoneal mast cells assessed as inhibition of concanavalin A-induced histamine release treated 10 mins before concanavalin A challenge measured after 30 mins).
Type: functional
`COc1ccc2c(c1)OC(O)C(=O)N2` (racemic) gave an ID50 of 6 ×10⁻⁵ M.
For `O=C(O)[C@H]1O[C@@H](Oc2cc3oc(-c4ccccc4)cc(=O)c3c(O)c2O)[C@H](O)[C@@H](O)[C@@H]1O` [BAICALIN], the ID50 was 3 ×10⁻⁶ M.
In the case of `COc1ccc2[nH]c(=O)oc2c1` [COIXOL], the ID50 is reported as 1 ×10⁻³ M.
`C[C@]12CCC(=O)C=C1CC[C@@H]1[C@@H]2[C@@H](O)C[C@@]2(C)[C@H]1CC[C@]2(O)C(=O)CO` [HYDROCORTISONE] was tested, and the ID50 was 5 ×10⁻⁵ M.
`COc1ccc2c(c1)c(CC(=O)O)c(C)n2C(=O)c1ccc(Cl)cc1` [INDOMETHACIN] showed an ID50 of 8 ×10⁻⁴ M.
